According to US20230382916A1, “HETEROARYL HETEROCYCLIC COMPOUNDS AND USES THEREOF” (HUTCHISON MEDIPHARMA LIMITED, priority 2020, published 2023):
pIC50: −log10 of the molar value.

How the values were obtained:
BTK recombinant protein = BTK recombinant protein (Homo sapiens (Human), UniProt Q06187); test: Determination of biochemical BTK (Z'-LYTE kinase assay); details: 32 μM ATP
From the text: BTK recombinant protein: Invitrogen, Cat #PV3363;
Z′-LYTE® kinase test kit-tyrosine 1 peptide: Invitrogen, Cat #PV3190;
Z′-LYTE® biochemical assay employs a fluorescence resonance energy transfer (FRET)-based, coupled-enzyme format and is based on the differential sensitivity of phosphorylated and non-phosphorylated peptides to proteolytic cleavage. Both ends of the short peptide substrate are labeled with two fluorescent groups to form a FRET paired combination. In the primary reaction (the Kinase Reaction), the kinase transfers the γ-phosphate of ATP to a single […] residue on the short peptide substrate. In the secondary reaction (the development reaction), the non-phosphorylated short peptides were recognized and cleaved by a site-specific protease (the development reagent). Phosphorylated short peptides can resist such cleavage. Cleavage of short peptides can disrupt the donor (such as coumarin) and receptor fluorophores (fluorescein) on the short peptides, while the phosphorylated short peptides can maintain FRET. The calculation method of the ratio is as follows, and the ratio of the respective emission signals generated by the donor fluorophores emitted (after excitation at 400 nm) to the receptors is calculated. Emission signal ratio=emitted light by coumarin (445 nm)/emitted light by fluorescein (520 nm). If the FRET short peptide is phosphorylated (such as no kinase inhibitor), the emitted light ratio will remain in a lower level. If the FRET short peptide is non-phosphorylated (such as kinase inhibitor), the emitted light ratio will be in a higher level. In this way, the inhibitory effects of different compound inhibitors on BTK kinase activity would be distinguished.
The experiment was carried out according to the instructions of the Z′-LYTE® kinase test kit-tyrosine 1 peptide. Reagent preparation: 1.33× kinase buffer: 5× kinase buffer was diluted with water to 1.33× kinase buffer; an enzyme solution: the kinase was dissolved in 1.33× kinase buffer with the final working concentration being 3.32 nM; a short peptide solution: a short peptide stock solution (1 mM dissolved in DMSO) was dissolved in 1.33× kinase buffer with the final working concentration being 2 μM; Z′-LYTE Tyr01 phosphorylated short peptide solution, 0.6 μl of stock solution (1 mM dissolved in DMSO) was dissolved in 149.4 μl of 1.33× kinase buffer; an ATP solution: an ATP stock solution (10 mM aqueous solution) was dissolved in 1.33× kinase buffer with the final working concentration being 32 μM; a color-developing solution: color-developing solution B was dissolved in color-developing buffer with the final working concentration being 1× color-developing solution; 4× compound preparation: the compound was diluted in 3-fold gradient concentration to finally obtain 4% DMSO aqueous solution containing different concentrations of the compound, with the final working concentration being 3000, 1000, 333.33, 111.11, 37.04, 12.35, 4.12, 1.37 nM, 8 concentration points in total.
Specific steps of the experiment: In the experiment, there were three control groups, each with 8 replicate wells, which were C1 100% inhibition group (no ATP), C2 0% inhibition group (with ATP), and C3 100% phosphorylation group, respectively. 2.5 μl of serially diluted compound was added to each well of a 384-well plate, with double replicate wells, and 4% DMSO solution was added to wells C1, C2, and C3. After that, except for wells C3, 2.5 μl of BTK enzyme solution was added to each remaining well, which was left to stand at 4° C. for 30 minutes. After that, except for wells C3, 2.5 μl of short peptide solution was added to each well, and 5 μl of phosphorylated short peptide solution was added to each of wells C3. 2.5 μl of 1.33× kinase buffer was added to each of wells C1 and C3, and 2.5 μl of ATP solution was added to each of the remaining wells. The wells were centrifuged transiently, and the plate was shaken at 1000 rpm for 30 seconds to perform transient centrifuge. […]

[1] = Stability test in liver microsomes (rat); format: in vitro ADME; details: rat liver microsomes 0.5 mg/mL, 1 μM compound
Procedure: (§1) Both male CD-1 mouse pooled liver microsomes and male SD rat pooled liver microsomes were purchased from BioreclamationIVT Corporation, USA.
(§2) The test compound stock solution was diluted with an organic solvent (usually a mixture of acetonitrile, methanol and water with various ratios, depending on the solubility of the compound, if necessary, 1 N hydrochloric acid or 1 N sodium hydroxide would be added to facilitate solubilization) to the 0.1 mM (the final concentration of the compound in the reaction system was 1 μM) and the concentration percentage of the organic solvents in the incubation system no more than 1% (wherein the percentage of DMSO was required to be no more than 0.1%). An appropriate amount of 100 mM NADP, 500 mM G-6-P and 100 Unit/mL G-6-PDH were mixed and diluted with ultrapure water (the final system contains 1 mM NADP, 5 mM G-6-P and 1 Unit/mL G-6-PDH), pre-incubated in a 37° C. water bath for 10 minutes and then placed on ice for use as a NADPH regeneration solution. 20 mg/mL liver microsomes solution and 200 mM phosphate buffer were mixed, and diluted with ultrapure water to give a liver microsomes solution containing 2.5 mg/mL liver microsomes (the final concentration of the reaction system is 0.5 mg/mL) and 50 mM phosphate buffer. The diluted liver microsomes solution was mixed with 0.1 mM compound solution, a mixture of 100 mM EDTA, 300 mM MgCl2 solution, 200 mM phosphate buffer (the final system was 3 mM MgCl2, 1 mM EDTA and 50 mM phosphate buffer) and water in an appropriate volume was added. Finally, the NADPH regeneration solution was added, then the reaction solution was placed in a 37° C. water bath to start the reaction (the reaction time was 30 minutes), and the reaction was stopped by adding the ice-cold acetonitrile reaction stopping solution containing the internal standard. The 0-minute sample was not incubated in a 37° C. water bath, and its difference from the 30-minute sample further lies in that the ice-cold acetonitrile reaction stopping solution containing the internal standard was added first, and then the NADPH regeneration solution was added. The sample added with the reaction stopping internal standard solution was vortexed and mixed well, and then centrifuged at 4400 rpm for 10 minutes. The supernatant was taken and diluted ten times with 50% methanol for LC-MS/MS analysis.
(§3) LC-MS/MS was used to determine the concentration of the compound in the sample. The percentage of the remaining compound after 30 minutes of incubation comparing with that in the 0-minute sample was calculated using the peak area ratio of the compound to the internal standard as an indicator, to evaluate the metabolic stability of the compound.

[2] = Stability test in liver microsomes (mouse); format: in vitro ADME; details: mouse liver microsomes 0.5 mg/mL, 1 μM compound
Procedure: as §1, §2, §3

[3] = tested on: rat arthritis model induced by type II collagen; test: Rat arthritis model induced by type II collagen (CIA), paw volume; format: in vivo; details: for inhibition ratio of area under the curve (IRAUC) of paw swelling: Day 13 to Day 19
Procedure: An appropriate amount of bovine type II collagen (CII, Chondrex (Redmond, WA, USA), Cat #20021) was weighed and dissolved in 0.1 mole of acetic acid (SPGC Sinopharm Chemical Reagent Co., Ltd (Shanghai, P.R. China), Cat #: 10000218.), which was formulated into a solution with a concentration of 6 mg/mL, stirred at 4° C. overnight, and added with an equal volume of Freund's incomplete adjuvant (Sigma-Aldrich. (St. Louis, MO, USA), Cat #: SLBW0366.), fully emulsified to prepare an emulsion with a CII concentration of 3 mg/mL.
Female Lewis rats were purchased from Beijing Vital River Laboratory Animal Technology Co., Ltd. (certificate number 20200928Aazz0619000579, initial body weight of 110-130 grams), and 6 rats were randomly selected as a normal group; and all of the remaining rats were immunized. In the first immunization on day 0, the rats except those in the normal group were anesthetized with isoflurane (Hebei Yipin Pharmaceutical Co., Ltd., Lot: C002170601.), and then disinfected with 75% alcohol, and 0.2 mL of emulsion was injected intradermally at the base of the tail thereof. A second challenge was carried out on day 7, and 0.2 mL of emulsion was intradermally injected using the same method. Once the animals developed symptoms on day 10, the incidence conditions thereof were closely monitored.
After grouping, the normal group was not administered, and the rats in the other groups were administered with the control vehicle, 0.25 mg/kg and 4 mg/kg of the reference GDC-0853, and each dose of compound 1 orally once a day until the end of the experiment.
The paw volume was measured on day 10 after immunization, and the left and right hind paw volumes (V) were measured every day after the paw volume increase was detected.
The arthrosis paw volumes of the left and right hind limbs of each animal were measured, and the average paw volume (APV) was calculated according to the following formula:
Average paw volume APV=(Vleft+Vright)/2
The average arthrosis paw volume of each animal before administration was used as the baseline (or considered […] of inflammation). The averaged paw swelling (APS) of each animal is calculated according to the following formula, wherein, APVd1 is the average paw volume of the animal administered on day 1, and APVdt is the average paw volume of the animal administered on day t:
The averaged paw swelling APSdt=(APVdt−APVd1)
The area under the curve (AUC) of the average paw volume swelling is the area under the curve of the arthrosis score swelling calculated by the trapezoid method, and the calculation formula is:
AUCAPS=½×(APSd1+APSd2)×(d2−d1)+½×(APSd2+APSd3)×(d3−d2)+ . . . +½×(APSdn+APSd(n-1))×(dn−dn-1).
Inhibition ratio IRAUC%=(Mean AUCAPS in the model group−AUCAPS in the drug-treated group)/(Mean AUCAPS in the model group−Mean AUCAPS in the normal group)×100%.

[4] = tested on: anti-IgD antibody-induced B cell activation in mice whole blood; test: In vivo efficacy of the inhibitory effect on BTK target: anti-IgD antibody-induced B cell activation in mice whole blood after oral dosing; set-up: species or system mouse; details: 20 mg/kg oral single dose, 16 h
Procedure: Objects: B cells in mice whole blood were induced and activated by the anti-IgD antibody, and the inhibitory effect of the compound of the present invention on B cell activation in vivo was studied, so as to determine the inhibitory effect of the compound of the present invention on the BTK target in vivo.
Methods: C57BL/6 mice (female, 18-20 g, purchased from Shanghai Lingchang Biotechnology Co., Ltd.) were grouped according to Table 1.
The animals of each group were administered, then were placed in CO2 for anesthesia at designated time points, blood samples were taken from […] via retro-orbital bleeding, and heparin was used for anticoagulation; 90 μL of whole blood was taken from mice of each group, and added to a 96 well culture plate, and anti-mouse IgD antibody (BIO-RAD, Cat #MCA4693) was added to each well to a final concentration of […] (respectively for each drug-treated group and anti-IgD antibody-inducted vehicle group); in addition, 90 μL of whole blood of mice in the vehicle group was taken and added to the 96-well culture plate, and PBS (phosphate buffer, GIBCO, Cat #C20012500BT) was added to each well to a final concentration of 0.01 μg/L (namely, the vehicle control group); Each group was mixed well and incubated in a 37° C./5% CO2 incubator for 4 hours. In addition, the blood of mice in the drug-treated group was centrifuged to separate plasma for blood concentration analysis.
B cell activation ratio=percentage of CD69^+CD19^+ double positive B cells/percentage of CD19^+ single positive B cells
Inhibition ratio=(percentage of B cell activation ratio in anti-IgD antibody-induced vehicle group−percentage of B cell activation ratio in drug-treated group)/(percentage of B cell activation ratio in anti-IgD antibody−induced vehicle group-percentage of B cell activation ratio in vehicle control group)×100%
All data are represented by mean±standard error. For the comparison between each drug-treated group and the anti-IgD antibody-induced vehicle group, p value was calculated by Graphpad Prism using one-way ANOVA analysis of variance and Dunnett's test, and for the comparison between each drug-treated group, p value was calculated by using unpaired t test.

BTK recombinant protein, sequence (Q06187 whole entry): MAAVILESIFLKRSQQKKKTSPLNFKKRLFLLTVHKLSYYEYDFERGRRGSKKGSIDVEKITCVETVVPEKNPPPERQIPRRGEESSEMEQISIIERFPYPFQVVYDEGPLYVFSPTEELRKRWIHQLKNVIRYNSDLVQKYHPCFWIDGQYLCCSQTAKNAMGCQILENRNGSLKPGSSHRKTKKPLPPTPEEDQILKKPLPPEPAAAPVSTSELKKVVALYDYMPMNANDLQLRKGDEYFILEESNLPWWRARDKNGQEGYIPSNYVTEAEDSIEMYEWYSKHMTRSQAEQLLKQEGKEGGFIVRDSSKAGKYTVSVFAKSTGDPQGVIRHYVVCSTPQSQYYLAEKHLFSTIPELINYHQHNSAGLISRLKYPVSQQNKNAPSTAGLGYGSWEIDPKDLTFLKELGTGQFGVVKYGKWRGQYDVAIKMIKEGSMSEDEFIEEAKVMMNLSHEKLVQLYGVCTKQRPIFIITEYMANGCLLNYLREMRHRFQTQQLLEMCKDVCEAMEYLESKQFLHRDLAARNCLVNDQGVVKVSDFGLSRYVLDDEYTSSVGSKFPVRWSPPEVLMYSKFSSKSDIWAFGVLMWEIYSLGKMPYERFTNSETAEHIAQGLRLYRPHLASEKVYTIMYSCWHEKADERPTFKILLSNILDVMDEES

SMILES	pIC50 (BTK recombinant protein)	RLM, percentage of the remaining compound after 30 minutes of incubation [1] [%]	MLM, percentage of the remaining compound after 30 minutes of incubation [2] [%]	effect on paw volume compared with vehicle control group ([3]; 0.25 mg/kg oral QD)	inhibition ratio of area under the curve (IRAUC) of paw swelling ([3]; 0.25 mg/kg oral QD) [%]	effect on paw volume compared with vehicle control group ([3]; 4 mg/kg oral QD)	inhibition ratio of area under the curve (IRAUC) of paw swelling ([3]; 4 mg/kg oral QD) [%]	Inhibition ratio (%) on B cell activation [4] [%]	B cell activation ratio (the population of activated B cells in total B cells) ([4]; mean ± standard error)
C[C@H]1CN(C2COC2)C[C@H](C)N1c1ccc(Nc2cc(-c3ccnc(-n4ncn5c6c(cc5c4=O)CC(C)(C)C6)c3CO)cn(C)c2=O)nc1 [Compound 4, 2-(5-((5-((2S,6S)-2,6-dimethyl-4-(oxetan-3-yl)piperazin-1-yl)pyridin-2-yl)amino)-3′-(hydroxymethyl)-1-methyl-6-oxo-1,6-dihydro-[3,4′-bipyridin]-2′-yl)-7,7-dimethyl-7,8-dihydro-2H-cyclopenta[4,5]pyrrolo[1,2-d][1,2,4]triazin-1(6H)-one]	8.30	97.4	90.9	–	–	–	–	–	–
C[C@H]1CNC[C@H](C)N1c1ccc(Nc2cc(-c3ccnc(-n4ccn5c6c(cc5c4=O)CC(C)(C)C6)c3CO)cn(C)c2=O)nc1 [Compound 5, 2-(5-((5-((2S,6S)-2,6-dimethylpiperazin-1-yl)pyridin-2-yl)amino)-3′-(hydroxymethyl)-1-methyl-6-oxo-1,6-dihydro-[3,4′-bipyridin]-2′-yl)-7,7-dimethyl-7,8-dihydro-2H-cyclopenta[4,5]pyrrolo[1,2-a]pyrazin-1(6H)-one]	8.10	95.4	67.5	–	–	–	–	–	–
C[C@H]1CN(C2COC2)CCN1c1ccc(Nc2cc(-c3ccnc(N4CCn5c(cc6c5CC(C)(C)C6)C4=O)c3CO)cn(C)c2=O)nc1 [GDC-0853, fenebrutinib, reference compound]	–	81.0	76.3	no improvement effect	−6.4	significantly reduced	144.7	9	29.3 ± 6.7
